Source: US20230181608A1, “NUTRIENT COMPOSITION, FOOD INCLUDING THE SAME AND USE OF THE NUTRIENT COMPOSITION” (Heilongjiang Feihe Dairy Co., Ltd., priority 2021, published 2023)

Key:
Assay type in all cases: cell-based, newborn rats and mice
[1] = test system: oligodendrocyte precursor cells (MBP positive cells); assay: number of MBP positive cells after 30 DIVs (OPC/OL maturation), primary mixed culture of neurons and OL; settings: for effect on the number of MBP positive cells (maturation of oligodendrocyte precursor cells), in words: in comparison with the blank control group / with the components alone
Method: (§1) All experiments were approved by ethics, and the primary mixed culture of neurons and OL were carried out according to the following steps. Briefly, the forebrain of newborn rats and mice were dissociated with trypsin (Trypsin EDTA 1X, PAN BIOTECH) at 37° C. for 20 minutes. After addition of Dulbecco modified Eagle medium (DMEM, PAN BIOTECH) containing DNAase I Grade II (0.1 mg/ml, PAN BIOTECH) and 10% fetal bovine serum (FCS, GIBCO), the reaction was stopped. The cells were mechanically separated three times through a 10 ml pipette, and then centrifuged at 4° C. under 515 g for 10 minutes.
(§2) Living cells were inoculated in 96-well plates (20000/well), which were pre-coated with poly-L-lysine (BD Falcon) and laminin (Sigma). The culture medium consists of Neurobasal (GIBCO) added with 2% B27 (GIBCO), 2 mM L-glutamine (L Glu, PAN BIOTECH), 2% P/S solution (PAN BIOTECH), 1% FCS and 10 ng/ml platelet-derived growth factor (PDGF-AA, PAN BIOTECH). The 96-well plates are stored in a humidified incubator, at a temperature of 37° C. and with an environment of air (95%) - CO2 (5%).
(§3) A same number of cells were placed on 48-well plates, and then incubated for 12, 18 or 30 DIVs. Half of the medium were replaced every other day. A mixture or separate nutrition were added to the fresh medium (the nutrient composition prepared above, containing 2′-FL, choline and/or milk fat global membrane).
(§4) After 12, 18 and 30 DIVs, the cells were fixed with a cold mixture of 95% ethanol and acetic acid (5%) for 5 minutes. The non-specific sites were then blocked for 15 minutes at room temperature with a phosphate buffered saline (PBS) solution containing 0.1% saponin (Sigma) and 1% FCS (GIBCO).
(§5) At 30 DIVs, nerve cells were co-incubated with mouse monoclonal antibody MBP (dilution: 1/1000, Novus, NBP1-05204) and neurofilament protein antibody (dilution: 1/500, Sigma, N4142) for 2 hours. Then a secondary goat anti-mouse antibody (dilution: 1/800, Sigma, SAB4600042) and a secondary goat anti-rabbit antibody (dilution: 1/400, SIGMA, SAB4600084) were used to co-incubate at room temperature for 1 h.
(§6) ImageXpress equipped with LED lights (360/480/565 for excitation and 460/535/620 for emission) is used for 20× amplification. All images are acquired using the same settings.
At 30 DIVs, the maturity of OL was estimated by calculating the number of MBP positive cells (average number of cells per imge, per well) and the average surface area of MBP positive cells at 30 DIVs ([…], per image, per well).
(§7) Cells were inoculated on a 96-well plate and cultured for a certain period of time. Half of the culture medium was replaced every other day. Varying concentrations of mixed or separate 2′-FL mixtures were added to the special culture medium for fresh primary cells (added on day 12, 18 and 30, respectively). 6 replicas for each sample. […] The blank control group, positive control group and sample intervention group were compared, respectively. The effects of milk fat global membrane, 2′-FL and choline, alone or in mixture, on OPC population, OL maturation and differentiation, myelin formation and neurite growth was determined by immunohistochemistry (MBP, NF, A2B5). See Table 2 below for specific experimental dosage.
In order to measure the effect of mixed nutrition or single nutrition treatment on OPC cell maturation, we evaluated the number of MBP positive cells after 30DIVs.

[2] = test system: oligodendrocyte precursor cells (MAG positive cells); assay: number of MAG positive cells after 18 DIVs (OPC differentiation/myelination), primary mixed culture of neurons and OL; settings: for effect on the number of MAG positive cells (myelination of oligodendrocyte precursor cells), in words: in comparison with the blank control group / with the components alone
Method: as §1, §2, §3, §4
as §5, with “18” for “30”, “MAG” for “MBP”, “1/400, Millipore, MAB1567)” for “1/1000, Novus, NBP1-05204)”, “h.” for “hours.”, “[…]” for “anti-mouse”, “1/400,” for “1/800,”
as §6
The differentiation of OPC into OL was evaluated by counting the number of MAG positive cells in cell culture. The results were expressed as the average number of cells per image and per well. The morphological maturity of MAG positive cells were assessed by measuring the average surface area of MAG positive cells in 18 DIV wells ([…]/image/well).
as §7
In order to measure the effect of mixed nutrition or single nutrition treatment on OPC cell myelination, we evaluated the number of positive cells labelled MAG after 18 DIVs.

[3] = test system: oligodendrocyte precursor cells (A2B5 positive cells); assay: number of A2B5 positive cells (number of OPCs) after 12 DIVs, primary mixed culture of neurons and OL; settings: for effect on the number of A2B5 positive cells (proliferation of oligodendrocyte precursor cells), in words: in comparison with the blank control group / with the components alone
Method: All experiments were approved by ethics, and the primary mixed culture of neurons and OL were carried out according to the following steps. Briefly, the forebrain of newborn rats and mice were dissociated with trypsin (Trypsin EDTA 1X, PAN BIOTECH) at 37° C. for 20 minutes. After addition of Dulbecco modified Eagle medium (DMEM, PAN BIOTECH) containing DNAase I Grade II (0.1 mg/ml, PAN BIOTECH) and 10% fetal bovine serum (FCS, GIBCO), the reaction was stopped. The cells were mechanically separated three times through a 10 ml pipette, and then centrifuged at 4° C. under 515 g for 10 minutes. Living cells were inoculated in 96-well plates (20000/well), which were pre-coated with poly-L-lysine (BD Falcon) and laminin (Sigma). The culture medium consists of Neurobasal (GIBCO) added with 2% B27 (GIBCO), 2 mM L-glutamine (L Glu, PAN BIOTECH), 2% P/S solution (PAN BIOTECH), 1% FCS and 10 ng/ml platelet-derived growth factor (PDGF-AA, PAN BIOTECH). The 96-well plates are stored in a humidified incubator, at a temperature of 37° C. and with an environment of air (95%) - CO2 (5%). […] Half of the medium were replaced every other day. A mixture or separate nutrition were added to the fresh medium (the nutrient composition prepared above, containing 2′-FL, choline and/or milk fat global membrane). After 12, 18 and 30 DIVs, the cells were fixed with a cold mixture of 95% ethanol and acetic acid (5%) for 5 minutes. The non-specific sites were then blocked for 15 minutes at room temperature with a phosphate buffered saline (PBS) solution containing 0.1% saponin (Sigma) and 1% FCS (GIBCO). […] Finally, a secondary goat anti-rabbit antibody (diluted 1/400, SIGMA, SAB460084) was used to co-incubate at room temperature for 1 h. ImageXpress equipped with LED lights (360/480/565 for excitation and 460/535/620 for emission) is used for 20× amplification. All images are acquired using the same settings. […] Cells were inoculated on a 96-well plate and cultured for a certain period of time. Half of the culture medium was replaced every other day. […] The blank control group, positive control group and sample intervention group were compared, respectively. […] See Table 2 below for specific experimental dosage.

[4] = high dosage: 2′-FL 20, milk fat globule membrane 55, choline 6.5 mg/ml (those present)
[5] = low dosage: 2′-FL 0.2, milk fat globule membrane 0.55, choline 0.065 mg/ml (those present)
[6] = medium dosage: 2′-FL 2, milk fat globule membrane 5.5, choline 0.65 mg/ml (those present)
[7] = low dosage: milk fat globule membrane 0.55 or choline 0.065 mg/ml

SMILES | increase of the number of MBP positive cells relative to the blank control group (Cell Experiment Example 1) [1, 4] | number of MBP positive cells (mean±standard deviation) [1, 4] | effect on the number of MBP positive cells (maturation of oligodendrocyte precursor cells), in words [1] | number of MBP positive cells (mean±standard deviation) [1, 5] | increase of the number of MBP positive cells relative to the blank control group (Cell Experiment Example 1) [1, 6] | number of MBP positive cells (mean±standard deviation) [1, 6] | increase of the number of MAG positive cells relative to the blank control group (Cell Experiment Example 1) [2, 4] | number of MAG positive cells (mean±standard deviation) [2, 4] | effect on the number of MAG positive cells (myelination of oligodendrocyte precursor cells), in words [2] | number of MAG positive cells (mean±standard deviation) [2, 5] | increase of the number of MAG positive cells relative to the blank control group (Cell Experiment Example 1) [2, 6] | number of MAG positive cells (mean±standard deviation) [2, 6] | increase of the number of A2B5 positive cells relative to the blank control group (Cell Experiment Example 1) [3, 4] | number of A2B5 positive cells (mean±standard deviation) [3, 4] | effect on the number of A2B5 positive cells (proliferation of oligodendrocyte precursor cells), in words [3] | number of A2B5 positive cells (mean±standard deviation) [3, 5] | increase of the number of A2B5 positive cells relative to the blank control group (Cell Experiment Example 1) [3, 6] | number of A2B5 positive cells (mean±standard deviation) [3, 6] | also measured
CC(C)CCC[C@@H](C)[C@H]1CC[C@H]2[C@@H]3CCC4=CC(=NO)CC[C@]4(C)[C@H]3CC[C@]12C [Olesoxime] | – | – | – | – | – | – | – | – | – | – | – | – | – | – | – | – | – | – | number of MBP positive cells (mean±standard deviation) ([1]; positive control, 300 nM): 124.00±3.61; number of MAG positive cells (mean±standard deviation) ([2]; positive control, 300 nM): 87.00±4.36; number of A2B5 positive cells (mean±standard deviation) ([3]; positive control, 300 nM): 171.33±3.51
CC1O[C@@H](OC2[C@H](O[C@@H]3C(CO)O[C@H](O)C(O)[C@@H]3O)OC(CO)[C@H](O)[C@H]2O)C(O)[C@H](O)[C@@H]1O (stereo partly drawn) [2′-FL, 2′-fucosyl lactose] | 20.67 | 83.00±5.29 | can increase the number of MBP positive cells | 104.00±4.58 | 42.34 | 104.67±5.03 * * | 21.33 | 62.00±4.00 | could increase the number of MAG positive cells | 54.00±6.08 | 35.66 | 76.33±4.51 | 18.33 | 135.00±6.08 | may increase the number of A2B5 positive cells | 151.33±4.73 | 39.33 | 156.00 ±5.57 | –
C[N+](C)(C)CCO.[Cl-] [choline, choline chloride] | 5.67 | 68.00±2.65 | can increase the number of MBP positive cells | 113.33±5.69 | 71.34 | 133.67±4.16 | 40.66 | 81.33±3.21 | could increase the number of MAG positive cells | 66.33±6.03 | 53.33 | 94.00±4.58 | -9 | 107.67±6.03 | may increase the number of A2B5 positive cells | 167.33±3.51 | 109 | 225.67±5.03 | increase of the number of MBP positive cells relative to the blank control group (Cell Experiment Example 1) [1, 7]: 51; increase of the number of MAG positive cells relative to the blank control group (Cell Experiment Example 1) [2, 7]: 25.66; increase of the number of A2B5 positive cells relative to the blank control group (Cell Experiment Example 1) [3, 7]: 50.66
